Key:
Orai1/STIM1 = target: T1, Orai1/STIM1 (Homo sapiens, UniProt Q96D31); test: Fluorescence-based assay of store-operated calcium entry in Orai1/STIM1 stable cells; type: cell-based; parameters: key to Orai1/STIM1 (IC50, μmol): A ≦ 1.0 μmol; B > 1.0 μmol; -- = no fit; conditions: HEK-293 cells stably expressing human STIM1 and Orai1, 50% inhibition of Peak-Basal fluo-4 signal, 30 minutes compound incubation; for IC50: read-out: Orai1/STIM1 (IC50, μmol)
T1 construct: c-myc (C); expressed in transfected cells
T1 sequence (Q96D31 whole entry): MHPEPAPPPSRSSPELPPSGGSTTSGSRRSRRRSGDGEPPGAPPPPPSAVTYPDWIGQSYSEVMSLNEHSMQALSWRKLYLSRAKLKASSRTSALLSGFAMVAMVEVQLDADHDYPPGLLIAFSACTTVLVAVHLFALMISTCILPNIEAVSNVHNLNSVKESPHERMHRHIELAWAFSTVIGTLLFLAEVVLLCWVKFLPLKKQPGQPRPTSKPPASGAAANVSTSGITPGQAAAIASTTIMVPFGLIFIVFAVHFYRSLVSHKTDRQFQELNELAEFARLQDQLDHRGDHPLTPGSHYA
Protocol: A. Fluorescence-Based Assay of Store-Operated Calcium Entry in Orail/STIM1 Stable Cells.
Cells stably expressing recombinant human STIM1 and Orail are generated by transfecting a human Orail expression plasmid (pcDNA3.1-Orail-cmyc) into HEK-293 cells stably overexpressing human STIM1 (Roos et al. 2005 JCB 169(3): 435-445). Colonies of cells stably expressing both STIM1 and Orail proteins are selected and then subcloned by limiting dilution. Cells were cultured at 37° C./6% CO2 in complete medium with 10% FBS and appropriate selection markers.
The day prior to performing the assay Orail/STIM1 stable cells are plated in 50 μL of complete medium at 90-95% confluence in a 384 well plate. Cells are grown at 37° C./6% CO2 overnight. On the day of the assay, 1.5 μM fluo-4-AM (Invitrogen) in complete medium is added to the cells, which are then incubated for 1 hour at RT. Cells are washed once in Ca^2+-free HBSS (Hank's buffered saline solution) and 35 μl of Ca^2+-free HBSS is added to each well. Test compounds are added to wells in a 10 μL Ca^2+-free HBSS solution, prepared at 4.5× the desired final concentration, and incubated for 30 minutes at RT. The initial baseline fluorescence signal is then measured with a FLIPR^384 (Molecular Devices) plate reader. Calcium entry is initiated by adding 5 μl of 10×CaCl2 (10 mM) in HBSS, and changes in cellular fluorescence are measured with the FLIPR^384 plate reader. In each well, the magnitude of the fluorescence signal as a result of calcium entry into the cell is determined by calculating the difference between the peak fluorescence signal measured after calcium addition and the initial baseline fluorescence signal (designated Peak-Basal). IC50 values are typically calculated as the concentration that inhibited 50% of the Peak-Basal signal (Table A).

RBL-2H3 cells = test: Fluorescence-based assay of store-operated calcium entry in RBL-2H3 cells; type: cell-based; conditions: Rattus norvegicus, thapsigargin, 50% inhibition of Upslope (7 seconds after calcium addition), read-out: RBL-2H3 (IC50, μmol)
Protocol: B. Fluorescence-Based Assay of Store-Operated Calcium Entry in RBL-2H3 Cells.
RBL-2H3 cells are obtained from ATCC and maintained in complete medium with 10% FBS at 37° C./6% CO2.
The day prior to performing the assay, RBL-2H3 cells are plated in 50 μL of complete medium in a 384 well plate. Cells are grown at 37° C./6% CO2 overnight and grow to 50-60% confluence by the next day. On the assay day, 1.5 μM Fluo-4-AM dye (Invitrogen) in complete medium is added and incubated for 1 hour at RT. Cells are washed twice in Ca^2+-free HBSS buffer and 35 μL Ca^2+-free HBSS buffer is added to each well. 10 μL of a test compound prepared in a Ca^2+-free HBSS solution at 4.5× of the desired concentration is added to a well and incubated for 5 minutes at RT. 10 μL of thapsigargin prepared in a Ca^2+-free HBSS solution at 5.5× of the desired concentration (5.5 uM) is added to each well and incubated for an additional 25 minutes. The initial baseline fluorescence signal is measured with a FLIPR^384 (Molecular Devices) plate reader. 5 μL of 12× calcium in HBSS (12 mM) is added and changes in cellular fluorescence are measured with the FLIPR^384 plate reader. In each well, the change in the fluorescent signal as a function of time due to calcium entry into the cell is determined by calculating the difference between the fluorescent signal measured 7 seconds after calcium addition and the initial baseline fluorescence signal at time zero (t=0). This parameter is designated Upslope. The IC50 value is calculated as the concentration at which 50% of the Upslope is inhibited.

Jurkat cells = Jurkat cells and colon cancer cells; cited from earlier work
[1] = target: STIM1 and Orail in HEK293 cells (Homo sapiens, UniProt Q96D31); conditions: HEK293 cells co-expressing STIM1 and Orai1; cited from earlier work
Chain of STIM1 and Orail in HEK293 cells (Q96D31 whole entry): as above

Q: With Cc1cc2c(cc1-c1cnc(NC(=O)c3ccccc3F)[se]1)OC(F)(F)O2 as the molecule, how does the IC50 (Orai1/STIM1) read?
A: ≤ 1000 nM

Q: What about the IC50 (RBL-2H3 cells) of the same molecule?
A: ≤ 1000 nM

Q: With Cc1nc2cc(Cl)c(-c3ccc(C(=O)Nc4ccccc4F)[se]3)cc2o1 as the molecule, how does the IC50 (Orai1/STIM1) read?
A: ≤ 1000 nM

Q: What about the IC50 (RBL-2H3 cells) of the same molecule?
A: ≤ 1000 nM

Q: Which results are given for Cn1nc(C(F)(F)F)cc1-c1cnc(NC(=O)c2ccccc2Cl)[se]1?
A: IC50 (Orai1/STIM1): ≤ 1000 nM; IC50 (RBL-2H3 cells): ≤ 1000 nM

Q: For Cc1cc(OC(F)(F)F)ccc1-c1cnc(NC(=O)c2ccccc2F)[se]1, which IC50 (Orai1/STIM1) is on record?
A: ≤ 1000 nM

Q: And the IC50 (RBL-2H3 cells)?
A: ≤ 1000 nM

Q: What does the source list for Cn1nc(-c2nccs2)cc1-c1ccc(C(=O)Nc2ccncc2F)[se]1?
A: IC50 (Orai1/STIM1): ≤ 1000 nM; IC50 (RBL-2H3 cells): ≤ 1000 nM

Q: For Cc1ccc(Cl)cc1-c1cnc(NC(=O)c2ccccc2F)[se]1, which IC50 (Orai1/STIM1) is on record?
A: ≤ 1000 nM

Q: What about the IC50 (RBL-2H3 cells) of the same molecule?
A: ≤ 1000 nM

Q: Which results are given for Cn1nc(-c2ccccc2F)cc1-c1ccc(C(=O)Nc2c(F)cccc2F)[se]1?
A: IC50 (Orai1/STIM1): ≤ 1000 nM; IC50 (RBL-2H3 cells): ≤ 1000 nM

Q: What does the source list for Cn1nc(-c2ccccc2F)cc1-c1cnc(NC(=O)c2ccccc2F)[se]1?
A: IC50 (Orai1/STIM1): > 1000 nM; IC50 (RBL-2H3 cells): ≤ 1000 nM

Q: With Cn1nc(-c2ccco2)cc1-c1ccc(C(=O)Nc2c(F)cccc2F)[se]1 as the molecule, how does the “Orai1/STIM1 (IC50, μmol)” value (Orai1/STIM1) read?
A: --

Q: What about the IC50 (RBL-2H3 cells) of the same molecule?
A: > 1000 nM

Q: What does the source list for Cc1cscc1-c1cnc(NC(=O)c2ccccc2F)[se]1?
A: IC50 (Orai1/STIM1): > 1000 nM; IC50 (RBL-2H3 cells): ≤ 1000 nM

Q: Which IC50 (Orai1/STIM1) does the source give for Cn1nc(-c2nccs2)cc1-c1ccc(C(=O)Nc2ccccc2F)[se]1 here?
A: ≤ 1000 nM

Q: What about the IC50 (RBL-2H3 cells) of the same molecule?
A: ≤ 1000 nM

Q: With Cn1nc(-c2ccccc2F)cc1-c1ccc(C(=O)Nc2ccncc2F)[se]1 as the molecule, how does the IC50 (Orai1/STIM1) read?
A: ≤ 1000 nM

Q: And the IC50 (RBL-2H3 cells)?
A: ≤ 1000 nM

Q: For Cc1ccccc1-c1cnc(NC(=O)c2ccccc2Cl)[se]1, which IC50 (Orai1/STIM1) is on record?
A: ≤ 1000 nM

Q: And the IC50 (RBL-2H3 cells)?
A: ≤ 1000 nM

Q: Which results are given for Cc1cc2scnc2cc1-c1ccc(C(=O)Nc2c(F)cccc2F)[se]1?
A: IC50 (Orai1/STIM1): ≤ 1000 nM; IC50 (RBL-2H3 cells): ≤ 1000 nM

Q: What does the source list for Cn1nc(-c2ccccc2F)cc1-c1ccc(C(=O)Nc2ccccc2F)[se]1?
A: IC50 (Orai1/STIM1): ≤ 1000 nM; IC50 (RBL-2H3 cells): ≤ 1000 nM

Q: For Cn1nc(C(F)(F)F)cc1-c1ccc(C(=O)Nc2c(F)cccc2F)[se]1, which IC50 (Orai1/STIM1) is on record?
A: ≤ 1000 nM

Q: And the IC50 (RBL-2H3 cells)?
A: ≤ 1000 nM

Q: For Cc1ccccc1-c1cnc(NC(=O)c2ccccc2F)[se]1, which IC50 (Orai1/STIM1) is on record?
A: ≤ 1000 nM

Q: And the IC50 (RBL-2H3 cells)?
A: ≤ 1000 nM

Q: Which “Orai1/STIM1 (IC50, μmol)” value (Orai1/STIM1) does the source give for Cc1cc(OC(F)(F)F)ccc1-c1cnc(NC(=O)c2c(F)cccc2F)[se]1 here?
A: --

Q: What about the IC50 (RBL-2H3 cells) of the same molecule?
A: ≤ 1000 nM

Q: For O=C(Nc1ncc(-c2ccccc2C(F)(F)F)[se]1)c1ccccc1F, which IC50 (Orai1/STIM1) is on record?
A: ≤ 1000 nM

Q: And the IC50 (RBL-2H3 cells)?
A: ≤ 1000 nM

Q: With Cc1cc2c(cc1-c1cnc(NC(=O)c3c(F)cccc3F)[se]1)OC(F)(F)O2 as the molecule, how does the IC50 (Orai1/STIM1) read?
A: > 1000 nM

Q: What about the IC50 (RBL-2H3 cells) of the same molecule?
A: ≤ 1000 nM

Q: What does the source list for O=C(Nc1ccncc1F)c1ccc(-c2cc(C(F)(F)F)ccc2Cl)[se]1?
A: IC50 (Orai1/STIM1): > 1000 nM; IC50 (RBL-2H3 cells): > 1000 nM

Q: For Cn1nc(C(F)(F)F)cc1-c1ccc(C(=O)Nc2ccncc2F)[se]1, which IC50 (Orai1/STIM1) is on record?
A: ≤ 1000 nM

Q: And the IC50 (RBL-2H3 cells)?
A: ≤ 1000 nM

Q: Which results are given for Cn1nc(C(F)(F)F)cc1-c1cnc(NC(=O)c2c(F)cccc2F)[se]1?
A: IC50 (Orai1/STIM1): ≤ 1000 nM; IC50 (RBL-2H3 cells): ≤ 1000 nM

Q: With Cc1ccc(F)cc1-c1cnc(NC(=O)c2ccccc2F)[se]1 as the molecule, how does the IC50 (Orai1/STIM1) read?
A: ≤ 1000 nM

Q: What about the IC50 (RBL-2H3 cells) of the same molecule?
A: ≤ 1000 nM

Q: With Cn1nc(C(F)(F)F)cc1-c1ccc(C(=O)Nc2ccccc2F)[se]1 as the molecule, how does the IC50 (Orai1/STIM1) read?
A: ≤ 1000 nM

Q: And the IC50 (RBL-2H3 cells)?
A: ≤ 1000 nM

Q: With O=C(Nc1[se]cc(-c2ccc(Br)cc2)c1C(=O)O)c1nc2ccccc2s1 as the molecule, how does the IC50 (Orai1/STIM1) read?
A: > 1000 nM

Q: What about the IC50 (RBL-2H3 cells) of the same molecule?
A: ≤ 1000 nM

Q: Which IC50 (Orai1/STIM1) does the source give for Cn1nc(-c2ccco2)cc1-c1ccc(C(=O)Nc2ccncc2F)[se]1 here?
A: ≤ 1000 nM

Q: What about the IC50 (RBL-2H3 cells) of the same molecule?
A: ≤ 1000 nM

Q: With Cc1ccccc1-c1cnc(NC(=O)c2c(F)cccc2F)[se]1 as the molecule, how does the IC50 (Orai1/STIM1) read?
A: ≤ 1000 nM

Q: And the IC50 (RBL-2H3 cells)?
A: ≤ 1000 nM

Q: For Cn1nc(C(F)(F)F)cc1-c1cnc(NC(=O)c2ccccc2F)[se]1, which IC50 (Orai1/STIM1) is on record?
A: ≤ 1000 nM

Q: And the IC50 (RBL-2H3 cells)?
A: ≤ 1000 nM

Q: Which results are given for Cn1nc(-c2ccco2)cc1-c1ccc(C(=O)Nc2ccccc2F)[se]1?
A: IC50 (Orai1/STIM1): ≤ 1000 nM; IC50 (RBL-2H3 cells): ≤ 1000 nM

Q: Which IC50 (Orai1/STIM1) does the source give for O=C(Nc1[se]cc(-c2ccc(Cl)cc2)c1C(=O)O)c1nc2ccccc2s1 here?
A: > 1000 nM

Q: What about the IC50 (RBL-2H3 cells) of the same molecule?
A: > 1000 nM

Q: Which IC50 (Orai1/STIM1) does the source give for CCn1nc(C(F)(F)F)cc1-c1cnc(NC(=O)c2ccccc2F)[se]1 here?
A: ≤ 1000 nM

Q: And the IC50 (RBL-2H3 cells)?
A: ≤ 1000 nM

Q: What does the source list for Cc1nnsc1C(=O)Nc1ccc(-n2nc(C(F)(F)F)cc2C(F)(F)F)cc1 [BTP-2]?
A: inhibition of SOCE (Jurkat cells): inhibits; inhibition of proliferation (Jurkat cells): inhibits

Q: Which IC50 (Orai1/STIM1) does the source give for Cn1nc(-c2nccs2)cc1-c1ccc(C(=O)Nc2c(F)cccc2F)[se]1 here?
A: ≤ 1000 nM

Q: And the IC50 (RBL-2H3 cells)?
A: ≤ 1000 nM

Q: Which “block of store-operated Ca2+ entry” value [1] does the source give for NCCOB(c1ccccc1)c1ccccc1 [2-aminoethoxydiphenylborate] here?
A: completely blocked

Q: What does the source list for O=C(Nc1[se]cc(-c2ccc(Br)cc2)c1C(=O)O)c1cc2ccccc2o1?
A: IC50 (Orai1/STIM1): ≤ 1000 nM; IC50 (RBL-2H3 cells): ≤ 1000 nM
